From ChEMBL document CHEMBL1128778 (Bioorg Med Chem Lett, 1995) come the findings set out here.

Each structure is given as a SMILES string.

Assay [1] has as its target T1, Squalene synthase (Rattus norvegicus, UniProt Q02769).
T1 sequence (Q02769 whole entry): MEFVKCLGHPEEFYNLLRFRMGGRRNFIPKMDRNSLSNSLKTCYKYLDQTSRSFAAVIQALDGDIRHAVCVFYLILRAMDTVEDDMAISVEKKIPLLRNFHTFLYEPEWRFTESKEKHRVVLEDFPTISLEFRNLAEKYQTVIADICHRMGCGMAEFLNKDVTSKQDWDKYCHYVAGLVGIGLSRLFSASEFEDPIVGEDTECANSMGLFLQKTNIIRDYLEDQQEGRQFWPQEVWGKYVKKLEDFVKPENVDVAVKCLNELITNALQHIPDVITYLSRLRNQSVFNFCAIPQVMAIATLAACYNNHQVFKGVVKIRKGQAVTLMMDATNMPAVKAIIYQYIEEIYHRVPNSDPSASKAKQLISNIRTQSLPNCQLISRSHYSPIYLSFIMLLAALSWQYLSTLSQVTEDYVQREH
The assay can be described thus: Inhibitory activity against squalene synthase in rat liver; not active.

For assay [2], the species on record is Mus musculus. The assay can be described thus: Compound was evaluated for its effective dose in the oral mouse cholesterol biosynthesis assay. Format: functional.
Assay [3] has as its system Mus musculus. The experiment in a line: Ability to inhibit mouse hepatic cholesterol biosynthesis when dosed orally at 24 mg/kg. The following applies: route oral. Format: functional.
The subject of assay [4] is Mus musculus. The experiment in a line: Ability to inhibit mouse hepatic cholesterol biosynthesis when dosed orally at 6 mg/kg. The following applies: route oral. Type of assay: functional.
Assay [5] concerns Mus musculus. The assay can be described thus: Ability to inhibit mouse hepatic cholesterol biosynthesis when dosed orally at 12 mg/kg. Format: functional. The following applies: route oral.
For assay [6], the species on record is Rattus norvegicus. The experiment in a line: Dose required for inhibition of cholesterol biosynthesis in rats was determined. Type of assay: functional.
Setting [7] is: Mus musculus, po, read-out: ED50.

For orientation: ED50 means the midpoint of the dose-response relation. Take `C=C(CCC12OC(C(=O)OC(C)C)C(O)(C(=O)OCOC(=O)C(C)(C)C)C(C(=O)O)(O1)[C@H](OC(=O)/C=C/[C@@H](C)C[C@@H](C)CC)[C@H]2O)[C@@H](OC(C)=O)[C@H](C)Cc1ccccc1` (stereo partly drawn): the Ki result in assay [1] is on record as “Not Active”. Further, the ED50 in assay [2] (setting [7]) was determined as 4 mg/kg.
`C=C(CCC12OC(C(=O)OCCC(C)C)C(O)(C(=O)OCOC(=O)C(C)(C)C)C(C(=O)O)(O1)[C@H](OC(=O)/C=C/[C@@H](C)C[C@@H](C)CC)[C@H]2O)[C@@H](OC(C)=O)[C@H](C)Cc1ccccc1` (stereo partly drawn): the Ki result in assay [1] is “Not Active”. Moreover, the ED50 in assay [2] and in assay [2] (setting [7]) was 9 mg/kg throughout.
With `C=CCOC(=O)C1OC2(CCC(=C)[C@@H](OC(C)=O)[C@H](C)Cc3ccccc3)OC(C(=O)O)([C@H](OC(=O)/C=C/[C@@H](C)C[C@@H](C)CC)[C@H]2O)C1(O)C(=O)OCOC(=O)C(C)(C)C` (stereo partly drawn), in assay [1], the Ki result was “Not Active”. Also, in assay [2] (setting [7]), the ED50 was found to be 2 mg/kg.
Broadly, the inhibition in vivo is the drop in the measured response relative to a control, in per cent. High values mean a response far below the control, low ones a response near the control. With `C=C(CCC12OC(C(=O)OCC(=O)OC(C)(C)C)C(O)(C(=O)OCOC(=O)C(C)(C)C)C(C(=O)O)(O1)[C@H](OC(=O)/C=C/[C@@H](C)C[C@@H](C)CC)[C@H]2O)[C@@H](OC(C)=O)[C@H](C)Cc1ccccc1` (stereo partly drawn), in assay [3], 24 mg/kg produced 45% inhibition in vivo. In assay [1], the Ki entry is “Not Active”.
In the case of `C=C(CCC12OC(C(=O)O)C(O)(C(=O)O)C(C(=O)O)(O1)[C@H](OC(=O)/C=C/[C@@H](C)C[C@@H](C)CC)[C@H]2O)[C@@H](OC(C)=O)[C@H](C)Cc1ccccc1` (stereo partly drawn) [ZARAGOZIC ACID A], the ED50 in assay [2] (setting [7]) came to 100 mg/kg.
Regarding `C=C(CCC12OC(C(=O)OCCC(C)C)C(O)(C(=O)OCOC(C)=O)C(C(=O)O)(O1)[C@H](OC(=O)/C=C/[C@@H](C)C[C@@H](C)CC)[C@H]2O)[C@@H](OC(C)=O)[C@H](C)Cc1ccccc1` (stereo partly drawn), the ED50 in assay [2] (setting [7]) worked out at 6 mg/kg.
In assay [4], `C=C(CCC12OC(C(=O)OCCCC)C(O)(C(=O)OCOC(=O)C(C)(C)C)C(C(=O)O)(O1)[C@H](OC(=O)/C=C/[C@@H](C)C[C@@H](C)CC)[C@H]2O)[C@@H](OC(C)=O)[C@H](C)Cc1ccccc1` (stereo partly drawn) registered an inhibition in vivo at 6 mg/kg of 18%. Also, the Ki entry in assay [1] was “Not Active”.
In assay [4], `C=C(CCC12OC(C(=O)OCC(=O)OC)C(O)(C(=O)OCOC(=O)C(C)(C)C)C(C(=O)O)(O1)[C@H](OC(=O)/C=C/[C@@H](C)C[C@@H](C)CC)[C@H]2O)[C@@H](OC(C)=O)[C@H](C)Cc1ccccc1` (stereo partly drawn) gave an inhibition in vivo at 6 mg/kg of 0%. In assay [1], the Ki entry was “Not Active”.
In assay [3], `C=C(CCC12OC(C(=O)O)C(O)(C(=O)OCOC(=O)C(C)(C)C)C(C(=O)O)(O1)[C@H](OC(=O)/C=C/[C@@H](C)C[C@@H](C)CC)[C@H]2O)[C@@H](OC(C)=O)[C@H](C)Cc1ccccc1` (stereo partly drawn) had an inhibition in vivo at 24 mg/kg of 0%.
With `C=C(CCC12OC(C(=O)OC)C(O)(C(=O)OCOC(=O)C(C)(C)C)C(C(=O)O)(O1)[C@H](OC(=O)/C=C/[C@@H](C)C[C@@H](C)CC)[C@H]2O)[C@@H](OC(C)=O)[C@H](C)Cc1ccccc1` (stereo partly drawn), the Ki entry in assay [1] is reported as “Not Active”. Also, the ED50 in assay [2] (setting [7]) came to 3.3 mg/kg.
As for `C=C(CCC12OC(C(=O)OCCOC)C(O)(C(=O)OCOC(=O)C(C)(C)C)C(C(=O)O)(O1)[C@H](OC(=O)/C=C/[C@@H](C)C[C@@H](C)CC)[C@H]2O)[C@@H](OC(C)=O)[C@H](C)Cc1ccccc1` (stereo partly drawn), the inhibition in vivo at 6 mg/kg in assay [4] amounted to 18%. The Ki entry in assay [1] was “Not Active”.
For the compound `C=C(CCC12OC(C(=O)NC(C)C)C(O)(C(=O)OCOC(=O)C(C)(C)C)C(C(=O)O)(O1)[C@H](OC(=O)/C=C/[C@@H](C)C[C@@H](C)CC)[C@H]2O)[C@@H](OC(C)=O)[C@H](C)Cc1ccccc1` (stereo partly drawn), the inhibition in vivo at 24 mg/kg in assay [3] came out at 41%.
With `C=C(CCC12OC(C(=O)NCCOC)C(O)(C(=O)OCOC(=O)C(C)(C)C)C(C(=O)O)(O1)[C@H](OC(=O)/C=C/[C@@H](C)C[C@@H](C)CC)[C@H]2O)[C@@H](OC(C)=O)[C@H](C)Cc1ccccc1` (stereo partly drawn), in assay [5], the inhibition in vivo at 12 mg/kg came to 18%. Moreover, in assay [1], the Ki result is recorded as “Not Active”.
On to `C=C(CCC12OC(C(=O)OCCC)C(O)(C(=O)OCOC(=O)C(C)(C)C)C(C(=O)O)(O1)[C@H](OC(=O)/C=C/[C@@H](C)C[C@@H](C)CC)[C@H]2O)[C@@H](OC(C)=O)[C@H](C)Cc1ccccc1` (stereo partly drawn), for which the Ki result in assay [1] is recorded as “Not Active”. Further, the ED50 in assay [2] (setting [7]) amounted to 2 mg/kg.
As for `C=C(CCC12OC(C(=O)OCC)C(O)(C(=O)OCOC(=O)C(C)(C)C)C(C(=O)O)(O1)[C@H](OC(=O)/C=C/[C@@H](C)C[C@@H](C)CC)[C@H]2O)[C@@H](OC(C)=O)[C@H](C)Cc1ccccc1` (stereo partly drawn), the ED50 in assay [6] was 18 mg/kg; in assay [2] (setting [7]), 2.6 mg/kg. Besides, in assay [1], the Ki entry is on record as “Not Active”.
